In patent publication US20140011755A1, “Cardiac Glycosides for Treating Autoimmune Disease” (Department of Veterans Affairs, priority 2010, published 2014):

Columns and labels:
[1] = tested on: TNF, IL-6 and IL-1beta; experiment: Serum cytokine ELISA in CIA treatment groups; type: in vivo; details: serum from 3 mice per treatment group, ELISA in triplicate
Source text: FIG. 9. Serum cytokine levels are similar between vehicle and cardiac glycoside treatment groups. […] The unpaired student t-test was used to assess significance.

[2] = tested on: collagen-induced arthritis (CIA) joints; type: in vivo, DBA1/J mice; details: cross-sectioned ankle joints, CIA prevention groups
Description: FIG. 7. Cardiac glycosides reduce joint pathology in the CIA mouse model for rheumatoid arthritis. Blinded scoring was performed on histologic sections of joints harvested from mice at the end of a CIA prevention study (A-C). Joints derived from three representative mice belonging to each prevention group (A-C) were decalcified, fixed and stained with tolidine blue, followed by scoring by an examiner blinded to treatment status for the severity of synovitis (inflammation), pannus (growth of the synovial lining), and erosions of bone. (D-G) Joints derived from three representative mice belonging to each prevention group were decalcified, fixed, and stained with hematoxylin and eosin. Cross-sectioned ankle joints from vehicle (D), digitoxin (E), ouabain (F) and proscillaridin (G) treated mice are presented. Error bars represent SEM, and asterisks indicate P-values less than 0.05 by Mann-Whitney test.
In treatment studies, mice were randomly enrolled in treatment groups and treatment commenced when the average clinical score was at or above 2. […] Daily dosing commenced upon enrollment at the abovementioned concentrations. […] Double-blinded histopathology scoring was conducted of cross-sectioned joints taken from cardiac glycoside and vehicle recipients. […] The results obtained from these animal studies indicate that cardiac glycosides are effective at reducing the clinical manifestations of disease and reducing joint pathology in mice with collagen arthritis.
The effects of the different cardiac glycoside treatments on CIA pathology was analyzed by histological scoring. Inflammatory cell infiltrate, synovial hyperplasia, pannus formation and articular cartilage and bone deterioration were evaluated in sectioned paws of treated mice at specific time-points throughout the disease course. […] The ELISA was developed and read using BD ELISA development kit. […]

[3] = target: T1, CD40 (Mus musculus, UniProt P27512); type: cell-based, mice; details: pre-treatment with 3.3 or 33 nM
T1 construct: Peritoneal and bone marrow-derived macrophages were isolated from CIA mice; endogenous in cells; host or cells: peritoneal and bone marrow-derived macrophages from CIA mice
T1 sequence (P27512 20-289): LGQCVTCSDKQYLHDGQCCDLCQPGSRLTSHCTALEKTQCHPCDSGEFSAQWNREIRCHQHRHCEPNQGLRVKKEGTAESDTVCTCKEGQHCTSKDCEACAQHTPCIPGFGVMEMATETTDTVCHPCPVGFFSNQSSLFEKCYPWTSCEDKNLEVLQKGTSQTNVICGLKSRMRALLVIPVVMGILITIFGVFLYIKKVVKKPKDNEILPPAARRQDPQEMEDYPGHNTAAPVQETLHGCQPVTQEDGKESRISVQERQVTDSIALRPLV
Description: (§1) Activity was monitored by ^3H-thymidine incorporation as a read-out for proliferation. […] Cell type(s) in the splenocyte population responsive to therapeutic concentrations of cardiac glycoside were determined by identifying the population of cells that responded to a dose-dependent decrease in activity in the presence of stimulant, defined as ligand(s) binding to cognate receptor(s). Activity was analyzed by: ^3H-thymidine or BrdU incorporation to monitor proliferation or by ELISA to monitor cytokine production. Splenic T lymphocytes were isolated by negative selection (MACS, Miltinyi Biotec) and are stimulated with PMA, ConA or through the TCR with anti-CD3/anti-CD28 Dynabeads (Invitrogen) and collagen II (all non-TNFR receptors/pathways). […] Peritoneal and bone marrow-derived macrophages were isolated from CIA mice in the presence of M-CSF growth factor and were stimulated with TNF and CD40 ligand (CD40L). […] Splenic B lymphocytes were isolated by negative selection (MACS, Miltinyi Biotec) and were stimulated with BAFF (BLyS), CD40L or through the BCR with anti-IgM u-chain specific antibodies.

[4] = tested on: TNFR; type: cell-based, mice; details: pre-treatment with 3.3 or 33 nM
Description: as §1

[5] = injectable versus other formulations; cited from earlier work
[6] = tested on: TNF-mediated NFκB activity in HeLa cells; experiment: NFκB luciferase reporter assay in TNF-stimulated HeLa cells; type: cell-based; details: pre-treatment 6 hours with 0-500 nM, 50 ng/mL TNF
Description: FIG. 8. […] Values represent mean light units produced. Error bars represent SEM, and statistical significance was determined by unpaired T-test. Single and double asterisks represent P-values of 0.01 or 0.001, respectively. […] Samples were harvested at designated time points and were fractionated into nuclear and cytoplasmic lysates (Pierce). Lysates were quantified using BCA (Pierce), and were equally loaded according to total protein. Membranes were probed for levels of nuclear phospho-p65 (ReIA), phospho-ReIB, and histone (histone served as loading control and fractionation method control) and cytoplasmic degradation of IκBα (beta-tubulin served as loading control and fractionation method control).
HeLa cells were co-transfected with the reporter pNFκB-luc and control vector pTAL (Renilla) for 18 h prior to incubation with 0-500 nM cardiac glycoside for 6 h. Cells are stimulated with 50 ng/mL TNF. […] FIG. 8 B).

[7] = tested on: anti-type II collagen antibodies; type: in vivo; details: sera of 6 mice per prevention group, ANOVA
Description: FIG. 10. Cardiac glycosides reduce immunoglobulin levels in CIA mice. ELISAs for anti-type II collagen antibodies were performed on sera derived from 6 representative mice of each prevention group (A, B). Isotype specific antibodies for IgG1 and IgG2a (A) and IgM (B) were utilized. […] Statistical analysis was performed using ANOVA and asterisks indicate points at which the P-values were less than 0.001.
The effects of the different cardiac glycoside treatments on CIA pathology was analyzed by histological scoring. Inflammatory cell infiltrate, synovial hyperplasia, pannus formation and articular cartilage and bone deterioration were evaluated in sectioned paws of treated mice at specific time-points throughout the disease course. Histopathology scores of inflammation, pannus formation and bone and cartilage erosions were conducted by a blinded investigator on toludine blue-stained cross sections of fixed leg joints from representative mice in vehicle and glycoside groups. Pathology scoring for each of the three categories are on a scale of 0-4 with grade 0=normal, 1=mild inflammation, hyperplasia of the synovial lining, cartilage destruction without bone erosion, grades 2 to 4=increasing degrees of inflammatory cell infiltrate, synovial hyperplasia, pannus formation and cartilage and bone destruction. Error bars represent SEM and statistics were performed using the Mann-Whitney test. At the endpoint, mice are bled and serum is collected from representative mice and stored at −80 C until use. To determine anti-collagen II antibody levels and to characterize isotype prevalence, bovine collagen II (Chondrex) was coated O/N at 4 C on an ELISA plate, washed and incubated with 100 uL of 1:10 dilution of each serum sample (in triplicate) for 2 h at RT. Wells were washed and incubated with anti-mouse IgM u-chain specific (Jackson), anti-mouse IgG1, or anti-mouse IgG2a (Southern Biotech) for 1 h at RT. The ELISA was developed and read using BD ELISA development kit. Statistical analysis was performed using the two-tailed ANOVA and asterisks represent P-values less than 0.01.

[8] = tested on: collagen-induced arthritis (CIA); type: in vivo, DBA1/J mice
[9] = Human, 3 × 0.5 mg/kg per diem, oral; Andersson, et al. (1975); cited from earlier work
[10] = tested on: erectile dysfunction; details: 20 mg sublingual; cited from earlier work
[11] = daily i.p. from Mean Visual Score of 2, digitoxin 0.3 mg/kg, proscillaridin […], Mann-Whitney

Row | SMILES | Serum cytokine levels (TNF, IL-6 and IL-1beta) versus vehicle [1] | immune cell infiltrate into the joints (hematoxylin and eosin) [2] | CD40L-mediated activation of macrophage through CD40 [3] | TNF-mediated activation of macrophage through TNFR [4] | bioavailability by formulation [5] | TNF-mediated NFκB activation (luciferase light units) [6] | anti-type II collagen IgG1 level relative to vehicle [7] | anti-type II collagen IgM level relative to vehicle [7] | Mean Paw Thickness, treatment of established arthritis [8, 11] | Mean Visual Score, treatment of established arthritis [8, 11] | development of CIA (Mean Visual Arthritis Score, Mean Paw Thickness), prevention study ([8]; daily i.p. from the day prior to induction, digitoxin 0.3 mg/kg, ouabain 0.03 mg/kg, proscillaridin […]) | average clinical arthritis scores compared to vehicle, prevention study ([8]; first dose one day prior to boost, 0.3 mg/kg digitoxin, 0.03 mg/kg ouabain, […] proscillaridin, 0.35 mg/kg digoxin, […] bufalin, 15 mice per group) | prevention and treatment of collagen-induced arthritis (CIA) ([8]; murine model for rheumatoid arthritis, summary statement) | Serum conc. [9] | safety and efficacy of sublingual administration [10]
1 | C[C@@H]1O[C@@H](O[C@@H]2C=C3CC[C@@H]4[C@H](CC[C@]5(C)[C@@H](c6ccc(=O)oc6)CC[C@]45O)[C@@]3(C)CC2)[C@H](O)[C@H](O)[C@H]1O [Proscillaridin, proscillaridin A] | similar | decreased amounts of immune cell infiltrate | inhibits | inhibits | higher bioavailability with injectable formulations | reduced TNF-mediated NFκB activation in a dose-dependent fashion | reduced levels | reduced levels | statistically significant reductions | statistically significant reductions | prevented the development of CIA | significantly reduced | potently prevent and treat | 0.75 ng/mL | 
2 | CCCc1nn(C)c2c(=O)[nH]c(-c3cc(S(=O)(=O)N4CCN(C)CC4)ccc3OCC)nc12 [sildenafil] |  |  |  |  |  |  |  |  |  |  |  |  |  |  | safe and effective
